Data: PMC12881674, “Activation of TRPV3 channels in bladder cancer cells stimulates ATP release” (Molecular Pharmacology, 2025)

Biological target: T1, TRPV3 in CAL-29 cells (Homo sapiens, UniProt Q8NET8)
T1 construct: host or cells: CAL-29
T1 sequence (Q8NET8 1-790): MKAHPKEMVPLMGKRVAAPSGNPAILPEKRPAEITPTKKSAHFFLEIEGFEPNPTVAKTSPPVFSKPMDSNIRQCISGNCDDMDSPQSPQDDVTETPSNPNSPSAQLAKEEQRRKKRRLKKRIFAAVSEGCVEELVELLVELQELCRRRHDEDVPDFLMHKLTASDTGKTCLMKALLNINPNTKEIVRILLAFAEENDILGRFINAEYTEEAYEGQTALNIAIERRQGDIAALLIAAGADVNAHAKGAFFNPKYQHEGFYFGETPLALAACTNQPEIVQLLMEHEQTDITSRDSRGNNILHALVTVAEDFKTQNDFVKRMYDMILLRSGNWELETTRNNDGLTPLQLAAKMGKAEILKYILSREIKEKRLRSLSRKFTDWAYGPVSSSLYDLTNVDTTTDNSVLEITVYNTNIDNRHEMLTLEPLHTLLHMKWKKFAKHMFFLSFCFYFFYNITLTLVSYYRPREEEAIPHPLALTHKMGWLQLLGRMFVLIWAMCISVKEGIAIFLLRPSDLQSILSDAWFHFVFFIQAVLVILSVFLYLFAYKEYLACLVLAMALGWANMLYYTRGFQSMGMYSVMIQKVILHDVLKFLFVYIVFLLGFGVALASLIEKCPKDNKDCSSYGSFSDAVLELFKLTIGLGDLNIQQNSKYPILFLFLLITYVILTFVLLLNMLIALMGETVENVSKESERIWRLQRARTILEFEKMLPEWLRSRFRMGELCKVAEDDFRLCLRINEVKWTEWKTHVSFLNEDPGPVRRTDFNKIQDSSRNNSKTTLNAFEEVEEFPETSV
Assay: fura-2 Ca2+ assay in CAL-29 bladder cancer cells
Format: cell-based
Conditions: 50 μM AV3-1
Protocol: All fluorometric Ca^2+ assays were performed in HBS buffer at room temperature. The compounds of the Enamine Diversity Set were diluted in a buffer composed of 150 mM NaCl and 20 mM HEPES and added to the cells at a final concentration of 25 μM (0.5% DMSO). For the primary compound screening and the generation of concentration-response analyses, a robotic liquid handling station (Freedom Evo 150; Tecan) with a built-in custom-made fluorescence plate imager was used. HEKTRPV3 and bladder cancer cell lines were harvested and loaded with 4 μM fluo-4/AM (Invitrogen; Fisher Scientific) in cell culture medium for 30 minutes at 37 °C. […] Fluorescence was excited using a 470-nm light-emitting diode, and emitted light was imaged through a 515-nm–long pass filter with a cooled Zyla 5.5 camera (Andor). Fluorescence was recorded and processed under the control of the μ-Manager 2.0 gamma software (https://micro-manager.org.[28]). After recording baseline fluorescence, compounds were dispensed into the wells via the liquid handling device. […] For further analysis, fluorescence signals were calculated for each well, corrected for background intensities and normalized to the initial signals. […] Fluorescence signals were excited with a fiber-coupled monochromator device (Polychrome V; Till Photonics) at 340, 358, and 380 nm and calibrated as described before.[29] […]

- [Ca2+]i response in CAL-29 cells: robust increases in [Ca^2+]i
Structure (SMILES): COC(=O)C12CN(Cc3ccccc3)CC1(C(=O)OC)CN(Cc1ccccc1)C2 (stereo not shown) [AV3-1]
